Data reported in US6573218B1, “Fused-benzene derivatives useful as herbicides” (Ishihara Sangyo Kaisha, Ltd., priority 1998, dated 2003).

Tests used:
Format in all cases: in vivo
[1] = tested on: barnyardgrass (Echinochloa crus-galli, ECHCG); assay: Pre-emerge greenhouse herbicide test; settings: 250 g ai/ha, 14 days after application, scale 0-100 (0 no damage, 100 complete death)
Summary of the method: (§1)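 Compounds in acetone were track-sprayed at 187 l/ha, 15–1000 g ai/ha, onto potted plants in sandy loam. Pre-emerge: seeds sown one day before spraying, soil watered in afterwards; post-emerge: plants at about the 2–3 leaf stage, with 0.25% v/v non-ionic surfactant. Injury rated 0 (none) to 100 (all plants dead) at 14 days.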

[2] = tested on: green foxtail (Setaria viridis, SETVI); assay: Pre-emerge greenhouse herbicide test; settings: 250 g ai/ha, 14 days after application, scale 0-100 (0 no damage, 100 complete death)
Summary of the method: as §1

[3] = tested on: ivyleaf morningglory (Ipomoea hederacea, IPOHE); assay: Pre-emerge greenhouse herbicide test; settings: 250 g ai/ha, 14 days after application, scale 0-100 (0 no damage, 100 complete death)
Summary of the method: as §1

[4] = tested on: johnsongrass (Sorghum halepense, SORHA); assay: Pre-emerge greenhouse herbicide test; settings: 250 g ai/ha, 14 days after application, scale 0-100 (0 no damage, 100 complete death)
Summary of the method: as §1

[5] = tested on: lambsquarters (Chenopodium album, CHEAL); assay: Pre-emerge greenhouse herbicide test; settings: 250 g ai/ha, 14 days after application, scale 0-100 (0 no damage, 100 complete death)
Summary of the method: as §1

[6] = tested on: large crabgrass (Digitaria sanguinalis, DIGSA); assay: Pre-emerge greenhouse herbicide test; settings: 250 g ai/ha, 14 days after application, scale 0-100 (0 no damage, 100 complete death)
Summary of the method: as §1

[7] = tested on: redroot pigweed (Amaranthus retroflexus, AMARE); assay: Pre-emerge greenhouse herbicide test; settings: 250 g ai/ha, 14 days after application, scale 0-100 (0 no damage, 100 complete death)
Summary of the method: as §1

[8] = tested on: sicklepod (Cassia obtusifolia, CASOB); assay: Pre-emerge greenhouse herbicide test; settings: 250 g ai/ha, 14 days after application, scale 0-100 (0 no damage, 100 complete death)
Summary of the method: as §1

[9] = tested on: velvetleaf (Abutilon theophrasti, ABUTH); assay: Pre-emerge greenhouse herbicide test; settings: 250 g ai/ha, 14 days after application, scale 0-100 (0 no damage, 100 complete death)
Summary of the method: as §1

[10] = tested on: field corn (Zea mays L., var. Dekalb 527, CORN); assay: Pre-emerge greenhouse crop damage test; settings: pre-emerge, 250 g ai/ha, 14 days after application, scale 0-100 (0 no damage, 100 complete death)
Summary of the method: as §1

[11] = tested on: soybean (Glycine max L., var. Pella 86, SOY); assay: Pre-emerge greenhouse crop damage test; settings: pre-emerge, 250 g ai/ha, 14 days after application, scale 0-100 (0 no damage, 100 complete death)
Summary of the method: as §1

[12] = tested on: upland rice (Ory0a sp., var.Tebonnet, RICE); assay: Pre-emerge greenhouse crop damage test; settings: in vivo
Summary of the method: as §1

[13] = tested on: barnyardgrass (Echinochloa crus-galli, ECHCG); assay: Post-emerge greenhouse herbicide test; settings: 250 g ai/ha, 14 days after application
Summary of the method: as §1

[14] = tested on: common ragweed (Ambrosia artemisiifolia L., AMBEL); assay: Post-emerge greenhouse herbicide test; settings: 250 g ai/ha, 14 days after application
Summary of the method: as §1

[15] = tested on: green foxtail (Setaria viridis, SETVI); assay: Post-emerge greenhouse herbicide test; settings: 250 g ai/ha, 14 days after application
Summary of the method: as §1

[16] = tested on: ivyleaf morningglory (Ipomoea hederacea, IPOHE); assay: Post-emerge greenhouse herbicide test; settings: 250 g ai/ha, 14 days after application
Summary of the method: as §1

[17] = tested on: johnsongrass (Sorghum halepense, SORHA); assay: Post-emerge greenhouse herbicide test; settings: 250 g ai/ha, 14 days after application
Summary of the method: as §1

[18] = tested on: lambsquarters (Chenopodium album, CHEAL); assay: Post-emerge greenhouse herbicide test; settings: 250 g ai/ha, 14 days after application
Summary of the method: as §1

[19] = tested on: large crabgrass (Digitaria sanguinalis, DIGSA); assay: Post-emerge greenhouse herbicide test; settings: 250 g ai/ha, 14 days after application
Summary of the method: as §1

[20] = tested on: redroot pigweed (Amaranthus retroflexus, AMARE); assay: Post-emerge greenhouse herbicide test; settings: 250 g ai/ha, 14 days after application
Summary of the method: as §1

[21] = tested on: sicklepod (Cassia obtusifolia, CASOB); assay: Post-emerge greenhouse herbicide test; settings: 250 g ai/ha, 14 days after application
Summary of the method: as §1

[22] = tested on: velvetleaf (Abutilon theophrasti, ABUTH); assay: Post-emerge greenhouse herbicide test; settings: 250 g ai/ha, 14 days after application
Summary of the method: as §1

[23] = tested on: field corn (Zea mays L., var. Dekalb 527, CORN); assay: Post-emerge greenhouse crop damage test; settings: 250 g ai/ha, post-emerge, 14 days after application
Summary of the method: as §1

[24] = tested on: soybean (Glycine max L., var. Pella 86, SOY); assay: Post-emerge greenhouse crop damage test; settings: 250 g ai/ha, post-emerge, 14 days after application
Summary of the method: as §1

[25] = tested on: upland rice (Ory0a sp., var.Tebonnet, RICE); assay: Post-emerge greenhouse crop damage test; settings: 250 g ai/ha, post-emerge, 14 days after application
Summary of the method: as §1

Row | Structure (SMILES) | Pre-emerge Herbicidal Activity ECHCG (phytotoxicity rating) [1] | Pre-emerge Herbicidal Activity SETVI (phytotoxicity rating) [2] | Pre-emerge Herbicidal Activity IPOHE (phytotoxicity rating) [3] | Pre-emerge Herbicidal Activity SORHA (phytotoxicity rating) [4] | Pre-emerge Herbicidal Activity CHEAL (phytotoxicity rating) [5] | Pre-emerge Herbicidal Activity DIGSA (phytotoxicity rating) [6] | Pre-emerge Herbicidal Activity AMARE (phytotoxicity rating) [7] | Pre-emerge Herbicidal Activity CASOB (phytotoxicity rating) [8] | Pre-emerge Herbicidal Activity ABUTH (phytotoxicity rating) [9] | Pre-emerge Herbicidal Activity CORN (crop damage rating) [10] | Pre-emerge Herbicidal Activity SOY (crop damage rating) [11] | Pre-emerge Herbicidal Activity RICE (crop damage rating) [12] | Post-emerge Herbicidal Activity ECHCG (phytotoxicity rating 0-100) [13] | Post-emerge Herbicidal Activity AMBEL (phytotoxicity rating 0-100) [14] | Post-emerge Herbicidal Activity SETVI (phytotoxicity rating 0-100) [15] | Post-emerge Herbicidal Activity IPOHE (phytotoxicity rating 0-100) [16] | Post-emerge Herbicidal Activity SORHA (phytotoxicity rating 0-100) [17] | Post-emerge Herbicidal Activity CHEAL (phytotoxicity rating 0-100) [18] | Post-emerge Herbicidal Activity DIGSA (phytotoxicity rating 0-100) [19] | Post-emerge Herbicidal Activity AMARE (phytotoxicity rating 0-100) [20] | other results
1 | CC1Oc2c(Cl)cc(F)c(-c3nn(C)c(OC(F)F)c3Cl)c2NC1=O (centres unmarked) [Compound 10-8, 4-Chloro-3-(8-chloro-6-fluoro-2-methyl-2H-1,4-benzoxazine-3-one-5-yl)-5-difluoromethoxy-1-methyl-i H-pyrazole] | 100 | 100 | 99 | 99 | 100 | 100 | 100 | 95 | 100 | 0 | 15 | 40 | 100 | 95 | 100 | 100 | 55 | 100 | 65 | 100 | Post-emerge Herbicidal Activity CASOB (phytotoxicity rating 0-100) [21]: 100; Post-emerge Herbicidal Activity ABUTH (phytotoxicity rating 0-100) [22]: 100; Post-emerge crop damage CORN (phytotoxicity rating 0-100) [23]: 25; Post-emerge crop damage SOY (phytotoxicity rating 0-100) [24]: 100; Post-emerge crop damage RICE (phytotoxicity rating 0-100) [25]: 90
2 | Cc1nc2c(-n3ncc(C(F)(F)F)cc3=O)c(F)cc(Cl)c2o1 [Compound 12-1] | 100 | 100 | 99 | 100 | 100 | 100 | 100 | 90 | 100 | 100 | 70 | 90 | 50 | 20 | 0 | 40 | 0 | 0 | 0 | 70 | Post-emerge Herbicidal Activity CASOB (phytotoxicity rating 0-100) [21]: 10; Post-emerge Herbicidal Activity ABUTH (phytotoxicity rating 0-100) [22]: 95; Post-emerge crop damage CORN (phytotoxicity rating 0-100) [23]: 0; Post-emerge crop damage SOY (phytotoxicity rating 0-100) [24]: 50; Post-emerge crop damage RICE (phytotoxicity rating 0-100) [25]: 10
